This passage reports IC50 results from patent US20240246992A1, “MACROCYCLIC LRRK2 KINASE INHIBITORS” (LES LABORATOIRES SERVIER, priority 2021, published 2024).

Sequence of human recombinant LRRK2 protein (Q5S007 whole entry): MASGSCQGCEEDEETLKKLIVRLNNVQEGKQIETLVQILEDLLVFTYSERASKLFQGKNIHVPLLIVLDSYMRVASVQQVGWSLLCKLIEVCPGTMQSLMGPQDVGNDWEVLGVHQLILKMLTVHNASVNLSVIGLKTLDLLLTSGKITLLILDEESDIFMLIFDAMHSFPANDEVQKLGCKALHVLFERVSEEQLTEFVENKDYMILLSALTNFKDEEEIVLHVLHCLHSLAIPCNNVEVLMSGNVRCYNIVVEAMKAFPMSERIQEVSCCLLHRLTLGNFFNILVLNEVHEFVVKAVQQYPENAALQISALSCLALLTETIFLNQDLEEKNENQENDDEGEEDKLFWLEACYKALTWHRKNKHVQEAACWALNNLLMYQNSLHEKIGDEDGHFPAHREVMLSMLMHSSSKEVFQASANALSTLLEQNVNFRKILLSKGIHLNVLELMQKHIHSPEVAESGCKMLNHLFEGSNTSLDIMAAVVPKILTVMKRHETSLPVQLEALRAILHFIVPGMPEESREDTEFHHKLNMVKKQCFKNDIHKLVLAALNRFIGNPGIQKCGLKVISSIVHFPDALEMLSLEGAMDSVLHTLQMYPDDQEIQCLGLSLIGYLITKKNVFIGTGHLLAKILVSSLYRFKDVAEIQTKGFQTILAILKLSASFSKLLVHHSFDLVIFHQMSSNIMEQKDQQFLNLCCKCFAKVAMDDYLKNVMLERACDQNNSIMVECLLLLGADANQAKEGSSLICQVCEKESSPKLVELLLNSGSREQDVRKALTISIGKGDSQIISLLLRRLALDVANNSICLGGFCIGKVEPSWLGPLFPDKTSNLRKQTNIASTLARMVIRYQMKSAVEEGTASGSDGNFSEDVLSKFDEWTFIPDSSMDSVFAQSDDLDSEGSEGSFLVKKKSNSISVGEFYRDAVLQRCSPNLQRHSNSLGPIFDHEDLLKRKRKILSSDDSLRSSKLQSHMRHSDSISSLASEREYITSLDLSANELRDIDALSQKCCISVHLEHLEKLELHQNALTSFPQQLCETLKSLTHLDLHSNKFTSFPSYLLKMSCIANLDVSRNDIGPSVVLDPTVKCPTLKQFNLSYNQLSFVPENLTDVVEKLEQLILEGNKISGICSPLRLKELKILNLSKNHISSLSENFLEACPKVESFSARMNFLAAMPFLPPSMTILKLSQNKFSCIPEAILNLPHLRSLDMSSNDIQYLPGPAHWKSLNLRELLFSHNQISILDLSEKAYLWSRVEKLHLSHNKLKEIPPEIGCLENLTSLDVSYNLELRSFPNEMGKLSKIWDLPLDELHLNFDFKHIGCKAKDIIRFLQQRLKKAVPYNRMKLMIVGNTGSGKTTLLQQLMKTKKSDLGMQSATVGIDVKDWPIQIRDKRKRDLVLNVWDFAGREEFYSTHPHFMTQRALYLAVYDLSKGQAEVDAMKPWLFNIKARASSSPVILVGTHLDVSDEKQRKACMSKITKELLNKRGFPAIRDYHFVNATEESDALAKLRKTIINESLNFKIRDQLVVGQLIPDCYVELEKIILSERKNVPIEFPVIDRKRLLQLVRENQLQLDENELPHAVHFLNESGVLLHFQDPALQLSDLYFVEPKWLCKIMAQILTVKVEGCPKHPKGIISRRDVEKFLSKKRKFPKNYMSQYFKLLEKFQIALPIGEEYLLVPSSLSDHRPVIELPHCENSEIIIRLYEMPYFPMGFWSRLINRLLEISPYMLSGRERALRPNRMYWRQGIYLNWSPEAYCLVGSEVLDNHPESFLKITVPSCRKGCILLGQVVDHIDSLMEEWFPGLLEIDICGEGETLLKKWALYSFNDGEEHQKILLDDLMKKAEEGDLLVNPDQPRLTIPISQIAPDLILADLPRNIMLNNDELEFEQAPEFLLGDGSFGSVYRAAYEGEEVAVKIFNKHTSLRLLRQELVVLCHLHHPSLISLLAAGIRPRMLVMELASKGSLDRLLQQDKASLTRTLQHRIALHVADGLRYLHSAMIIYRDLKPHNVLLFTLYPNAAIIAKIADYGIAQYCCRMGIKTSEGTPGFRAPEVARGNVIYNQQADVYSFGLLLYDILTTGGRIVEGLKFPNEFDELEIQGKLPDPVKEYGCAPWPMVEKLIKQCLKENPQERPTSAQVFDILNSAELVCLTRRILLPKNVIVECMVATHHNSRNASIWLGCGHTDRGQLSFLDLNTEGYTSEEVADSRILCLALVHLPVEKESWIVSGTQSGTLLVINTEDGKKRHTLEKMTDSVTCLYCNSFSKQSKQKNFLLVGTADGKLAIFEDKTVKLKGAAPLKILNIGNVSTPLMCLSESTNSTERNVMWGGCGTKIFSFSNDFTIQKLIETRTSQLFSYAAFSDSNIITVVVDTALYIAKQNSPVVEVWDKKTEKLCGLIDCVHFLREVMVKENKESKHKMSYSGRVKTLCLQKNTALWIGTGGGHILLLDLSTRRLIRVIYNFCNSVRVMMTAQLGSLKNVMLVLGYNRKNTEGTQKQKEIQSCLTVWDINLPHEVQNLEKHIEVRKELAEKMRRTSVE

The assay has as its target human recombinant LRRK2 protein (Homo sapiens, UniProt Q5S007). As to the kind of experiment: LRRK2 kinase activity assay (ADP-Glo, LRRKtide peptide). To be noted: human recombinant LRRK2 wt, LRRKtide peptide and ATP, 1 h at 37° C. The class given is biochemical. Put shortly: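 Human recombinant LRRK2 reacted with LRRKtide peptide and ATP for 1 h at 37 °C in the presence of compound. ADP formed measured by ADP-Glo luminescence; IC50 fitted from 10 concentrations run in duplicate.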
Consider `C[C@@H]1Oc2ccc3[nH]nc(c3c2)-c2cnn(c2)CCOCCO[C@@H]1C` [Example 100, (12R,13S)-12,13-dimethyl-8,11,14-trioxa-4,5,19,20-tetraazatetra cyclo[13.5.2.1^2,5.0^18,21]tricosa-1(20),2(23),3,15(22),16,18(21)-hexaene], for which the half-inhibitory concentration (IC50) is less than 100 nM.

As to `C[C@H]1COc2ccc3[nH]nc(c3c2)-c2cc(C#N)n(c2)CCOCCO1` [Example 85, (12S)-12-methyl-8,11,14-trioxa-5,19,20-triazatetracyclo[13.5.2.1^2,5.0^18,21] tricosa-1(20),2(23),3,15(22),16,18(21)-hexaene-4-carbonitrile], the concentration for half-maximal inhibition (IC50) was less than 10 nM.

For the compound `C[C@@H]1CCNC(=O)CCn2cc(cn2)-c2n[nH]c3ccc(cc23)O1` [Example 179, (12R)-12-methyl-13-oxa-4,5,9,18,19-pentaazatetracyclo [12.5.2.1^2,5.0^17,20] docosa-1(19),2(22),3,14(21),15,17(20)-hexaen-8-one], the IC50 was less than 10 nM.

As for `C[C@H]1CCOCCCn2ncc(n2)-c2n[nH]c3ccc(cc23)O1` [Example 92, (12S)-12-methyl-9,13-dioxa-4,5,18,19,22-pentaazatetracyclo[12.5.2.1^2,5.0^17,20]docosa-1(19),2(22),3,14(21),15,17(20)-hexaene], the IC50 was less than 10 nM.

Regarding `C[C@H]1CCOCCOCc2nc(cn2C)-c2n[nH]c3ccc(cc23)O1` [Example 79, (13S)-4,13-dimethyl-7,10,14-trioxa-4,19,20,23-tetraazatetracyclo[13.5.2.1^2,5.0^18,21]tricosa-1(20),2,5(23),15(22),16,18(21)-hexaene], the half-inhibitory concentration (IC50) was less than 100 nM.

Consider `O=C1COc2cc(Cl)cc(c2)-c2n[nH]c3ccc(cc23)OCCCN1` [Example 142, 4-chloro-7,14-dioxa-10,19,20-triazatetracyclo[13.5.2.1^2,6.0^18,21]tricosa-1(20),2,4,6(23),15,17,21-heptaen-9-one], for which the IC50 was less than 10 nM.

Regarding `C[C@@H]1COCCOCC(F)n2cc(cn2)-c2n[nH]c3ccc(cc23)O1` (single isomer, unassigned) [Example 106, (6S*,13R)-6-fluoro-13-methyl-8,11,14-trioxa-4,5,19, 20-tetraazatetracyclo[13.5.2.1^2,5.0^18,21]tricosa-1(20),2(23),3,15(22),16,18(21)-hexaene], the concentration for half-maximal inhibition (IC50) was less than 100 nM.

As for `C[C@@H]1COc2cncc(n2)-c2n[nH]c3ccc(cc23)O[C@@H](C)CCO1` [Example 58, (9R,13S)-9,13-dimethyl-7,10,14-trioxa-4,19,20,23-tetraazatetracyclo[13.5.2.1^2,6.0^18,21]tricosa-1(20),2(23),3,5,15(22),16,18(21)-heptaene], the IC50 was less than 100 nM.

Consider `O=C1NCCCOc2ccc3[nH]nc(c3c2)-c2cncc(c2)OC12CC2` [Example 156, 7′,14′-dioxa-4′,10′,19′,20′-tetraazaspiro[cyclopropane-1,8′-tetracyclo[13.5.2.1^2,6.0^18,21]tricosane]-1′(20′),2′(23′),3′,5′,15′,17′,21′-heptaen-9′-one], for which the IC50 was less than 100 nM.

As for `C[C@H]1CCOCCOCc2nc(cs2)-c2n[nH]c3ccc(cc23)O1` [Example 62, (13S)-13-methyl-7,10,14-trioxa-4-thia-19,20,23-triazatetracyclo[13.5.2.1^2,5.0^18,21]tricosa-1(20),2,5(23),15(22),16,18(21)-hexaene], the 50% inhibitory concentration (IC50) is less than 100 nM.

`C[C@@H]1COCC[C@H](C)Oc2ccc3[nH]nc(c3c2)-c2cncc(c2)O1` [Example 21, (8R,13S)-8,13-dimethyl-7,10,14-trioxa-4,19,20-triazatetracyclo[13.5.2.1^2,6.0^18,21]tricosa-1(20),2(23),3,5,15(22),16,18(21)-heptaene]: the IC50 was less than 10 nM.

Turning to `C[C@@H]1C[C@@H](C)n2cc(cn2)-c2n[nH]c3ccc(cc23)OCCCO1` [Example 117, (6R,8R)-6,8-dimethyl-9,13-dioxa-4,5,18,19-tetraazatetracyclo[12.5.2.1^2,5.0^17,20] docosa-1(19),2(22),3,14(21),15,17(20)-hexaene], the 50% inhibitory concentration (IC50) is less than 100 nM.

For `C[C@H]1CCCOCCn2ncc(n2)-c2n[nH]c3ccc(cc23)O1` [Example 122, (12S)-12-methyl-8,13-dioxa-4,5,18,19,22-pentaazatetracyclo[12.5.2.1^2,5.0^17,20]docosa-1(19),2(22),3,14(21),15,17(20)-hexaene], the half-maximal inhibitory concentration (IC50) was less than 10 nM.

Regarding `Fc1ccc2cc1OCCNCCCOc1ccc3[nH]nc-2c3c1` [Example 139, 5-fluoro-7,14-dioxa-10,19,20-triazatetracyclo[13.5.2.1^2,6.0^18,21]tricosa-1(20),2,4,6(23),15,17,21-heptaene], the IC50 is less than 10 nM.

Take `C[C@@H]1NC(=O)COc2cccc(c2)-c2n[nH]c3ccc(cc23)OC[C@H]1F` [Example 183, (11S,12S)-12-fluoro-11-methyl-7,14-dioxa-10,19,20-triazatetracyclo[13.5.2.1^2,6.0^18,21]tricosa-1(20),2,4,6(23),15,17,21-heptaen-9-one]: the concentration for half-maximal inhibition (IC50) was less than 100 nM.

With `O=C1NCCCOc2ccc3[nH]nc(c3c2)-c2cccc(c2)[C@H]2C[C@H]12` [Example 164, (7S,9S)-15-oxa-11,20,21-triazapentacyclo[14.5.2.1^2,6.0^7,9.0^19,22] tetracosa-1(21),2(24),3,5,16(23),17,19(22)-heptaen-10-one], the IC50 was less than 100 nM.

In the case of `C[C@@H]1CCNC(=O)C[C@H](C)n2ncc(n2)-c2n[nH]c3ccc(cc23)O1` [Example 242], the IC50 is less than 10 nM.

With `C[C@@H]1COCCOCC(F)n2cc(cn2)-c2n[nH]c3ccc(cc23)O1` (single isomer, unassigned) [Example 105, (6R*,13R)-6-fluoro-13-methyl-8,11,14-trioxa-4,5,19,20-tetraazatetracyclo[13.5.2.1^2,5.0^18,21]tricosa-1(20),2(23),3, 15(22),16,18(21)-hexaene], the IC50 was less than 10 nM.

`c1cc2cc(c1)-c1n[nH]c3ccc(cc13)OCCCNCCC2` [Example 167, 14-oxa-10,19,20-triazatetracyclo[13.5.2.1^2,6.0^18,21]tricosa-1(20),2(23),3,5,15(22),16,18(21)-heptaene]: the IC50 is less than 10 nM.

For the compound `c1cc2[nH]nc3c2cc1OCCOCCCCn1cc-3cn1` [Example 104, 10,13-dioxa-4,5,18,19-tetraazatetracyclo[12.5.2.1^2,5.0^17,20]docosa-1(19),2(22),3,14(21),15,17(20)-hexaene], the IC50 was less than 10 nM.

As to `C[C@@H]1CCOCCCOc2ccc3[nH]nc(c3c2)-c2cnn1c2` [Example 8, (6R)-6-methyl-9,13-dioxa-4,5,18,19-tetraazatetracyclo[12.5.2.1^2,5.0^17,20] docosa-1(19),2(22),3,14(21),15,17(20)-hexaene], the half-maximal inhibitory concentration (IC50) is less than 10 nM.
